Test results as given in ChEMBL document CHEMBL3997855, “Discovery of Fevipiprant (NVP-QAW039), a Potent and Selective DP2 Receptor Antagonist for Treatment of Asthma” (ACS Med Chem Lett, 2017).

Experiments:
[1] = target: T1, Prostaglandin D2 receptor 2 (Homo sapiens, UniProt Q9Y5Y4); experiment: Antagonist activity at DP2 receptor in CD4-positive human TH2 cells assessed as inhibition of DK-PGD2-induced IL-5 production after 6 to 8 hrs
T1 sequence (Q9Y5Y4 whole entry): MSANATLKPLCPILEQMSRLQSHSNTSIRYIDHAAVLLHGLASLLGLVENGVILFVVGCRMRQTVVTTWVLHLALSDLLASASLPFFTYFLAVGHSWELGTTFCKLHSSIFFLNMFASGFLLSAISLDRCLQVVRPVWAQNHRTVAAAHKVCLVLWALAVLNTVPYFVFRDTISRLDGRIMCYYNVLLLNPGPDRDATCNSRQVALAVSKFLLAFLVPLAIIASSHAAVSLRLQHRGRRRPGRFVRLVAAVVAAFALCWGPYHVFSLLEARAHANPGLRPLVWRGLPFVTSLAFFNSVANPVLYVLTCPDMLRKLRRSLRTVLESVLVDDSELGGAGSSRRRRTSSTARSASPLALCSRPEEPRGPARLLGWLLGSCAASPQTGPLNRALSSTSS

Rattus norvegicus [2] = experiment: In vivo antagonist activity at DP2 receptor in Sprague-Dawley rat DK-PGD2-induced pulmonary eosinophilia mechanistic model assessed inhibition of eosinophilia in broncho alveolar lavage fluid at 0.1 to 0.3 mg/kg, po pretreated for 40 mins starting at 2 hrs post IL-5 administration followed by DK-PGD2 administration measured after 2 hrs; assay type: functional, organism-based
[3] = target: T2, Prostaglandin D2 receptor 2 (Homo sapiens) (UniProt Q9Y5Y4)
T2 sequence (whole entry): T1 sequence (Q9Y5Y4 whole entry)
Description: Displacement of [3H]NVP-QAW039 from human DP2 receptor expressed in CHO cell membranes assessed as dissociation half life by TopCount scintillation assay

[4] = target: T1, Prostaglandin D2 receptor 2; experiment: Displacement of [3H]NVP-QAW039 from human DP2 receptor expressed in CHO cell membranes by TopCount scintillation assay
[5] = target: T1, Prostaglandin D2 receptor 2; experiment: Antagonist activity at DP2 receptor in human isolated eosinophils assessed as inhibition of DK-PGD2-induced shape change preincubated for 5 mins followed by DK-PGD2 addition measured after 5 mins by flow cytometry
[6] = target: T1, Prostaglandin D2 receptor 2; experiment: Antagonist activity at DP2 receptor in CD4-positive human TH2 cells assessed as inhibition of DK-PGD2-induced IL-13 production after 6 to 8 hrs
[7] = Antagonist activity at DP2 receptor in human whole assessed as inhibition of DK-PGD2-induced eosinophils shape change preincubated for 5 mins followed by DK-PGD2 addition measured after 5 mins by flow cytometry
[8] = target: T1, Prostaglandin D2 receptor 2; experiment: Displacement of [3H]PGD2 from human DP2 receptor expressed in CHO cell membranes after 60 mins by scintillation proximity assay
[9] = Volume of distribution at steady state in Wistar rat at 0.5 mg/kg, iv or 3 mg/kg, po by LC-MS/MS analysis; assay type: ADME, organism-based; details: in vivo, read-out: Vdss
[10] = Oral bioavailability in Wistar rat at 3 mg/kg by LC-MS/MS analysis; assay type: ADME, organism-based; details: in vivo
[11] = Clearance in Wistar rat at 0.5 mg/kg, iv or 3 mg/kg, po by LC-MS/MS analysis; assay type: ADME, organism-based; details: in vivo
[12] = Half life in Wistar rat at 0.5 mg/kg, iv by LC-MS/MS analysis; assay type: ADME, organism-based; details: in vivo
[13] = target: T3, Prostaglandin E2 receptor EP3 subtype (Homo sapiens, UniProt P43115); experiment: Antagonist activity at EP3 receptor (unknown origin)
T3 sequence (P43115 whole entry): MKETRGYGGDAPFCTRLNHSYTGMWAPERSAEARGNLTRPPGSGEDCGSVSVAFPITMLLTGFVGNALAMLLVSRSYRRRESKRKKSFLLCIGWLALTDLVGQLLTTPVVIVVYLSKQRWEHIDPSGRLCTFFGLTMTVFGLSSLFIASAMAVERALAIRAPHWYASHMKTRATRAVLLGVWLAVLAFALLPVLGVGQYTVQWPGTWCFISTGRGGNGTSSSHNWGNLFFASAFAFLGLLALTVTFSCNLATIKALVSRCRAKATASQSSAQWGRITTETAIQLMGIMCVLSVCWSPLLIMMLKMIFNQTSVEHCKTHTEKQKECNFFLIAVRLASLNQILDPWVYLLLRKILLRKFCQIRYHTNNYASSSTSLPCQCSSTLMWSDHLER

[14] = target: Prostaglandin E2 receptor EP2 subtype (Homo sapiens, UniProt P43116); experiment: Antagonist activity at EP2 receptor (unknown origin)
Cytochrome P450 2C9 = Cytochrome P450 2C9 (Homo sapiens, UniProt P11712); experiment: Inhibition of human CYP2C9; assay type: ADME
Canis familiaris = species: Canis familiaris; experiment: Toxicity in dog; parameters: species or system Canis lupus familiaris; details: in vivo
Prostacyclin receptor [15] = target: T4, Prostacyclin receptor (Homo sapiens, UniProt P43119); experiment: Antagonist activity at IP receptor (unknown origin)
Rattus norvegicus [16] = experiment: In vivo antagonist activity at DP2 receptor in Sprague-Dawley rat DK-PGD2-induced pulmonary eosinophilia mechanistic model assessed inhibition of eosinophilia in broncho alveolar lavage fluid at 0.03 to 0.1 mg/kg, po pretreated for 40 mins starting at 2 hrs post IL-5 administration followed by DK-PGD2 administration measured after 2 hrs; assay type: functional, organism-based
[17] = target: T1, Prostaglandin D2 receptor 2; experiment: Antagonist activity at DP2 receptor in CD4-positive human TH2 cells assessed as inhibition of PGD2-induced IL-4 production preincubated for 30 mins followed by PGD2 addition measured after 6 hrs
[18] = target: Prostaglandin E2 receptor EP4 subtype (Homo sapiens, UniProt P35408); experiment: Antagonist activity at EP4 receptor (unknown origin)
[19] = Fraction unbound in plasma of Sprague-Dawley rat DK-PGD2-induced pulmonary eosinophilia mechanistic model at 0.03 to 0.1 mg/kg, po by equilibrium dialysis method; assay type: ADME, organism-based
[20] = target: T5, Nuclear receptor subfamily 1 group I member 2 (Homo sapiens, UniProt O75469); experiment: Activation of PXR (unknown origin) assessed as CYP3A4 induction; assay type: ADME
T5 sequence (O75469 whole entry): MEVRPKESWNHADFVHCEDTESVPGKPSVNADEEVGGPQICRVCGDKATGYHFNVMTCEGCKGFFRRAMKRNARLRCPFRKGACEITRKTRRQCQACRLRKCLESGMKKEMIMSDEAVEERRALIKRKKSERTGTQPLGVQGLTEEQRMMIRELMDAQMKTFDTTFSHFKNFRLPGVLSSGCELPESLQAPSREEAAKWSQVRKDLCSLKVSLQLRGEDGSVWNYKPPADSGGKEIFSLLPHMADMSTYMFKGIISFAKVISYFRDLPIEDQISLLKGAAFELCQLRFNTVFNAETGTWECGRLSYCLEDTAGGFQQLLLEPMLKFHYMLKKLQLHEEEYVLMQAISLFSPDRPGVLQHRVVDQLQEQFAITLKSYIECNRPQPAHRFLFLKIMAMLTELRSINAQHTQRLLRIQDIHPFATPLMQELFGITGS

[21] = target: T6, Prostaglandin D2 receptor (Homo sapiens, UniProt Q13258); experiment: Antagonist activity at DP1 receptor (unknown origin)
T6 sequence (Q13258 whole entry): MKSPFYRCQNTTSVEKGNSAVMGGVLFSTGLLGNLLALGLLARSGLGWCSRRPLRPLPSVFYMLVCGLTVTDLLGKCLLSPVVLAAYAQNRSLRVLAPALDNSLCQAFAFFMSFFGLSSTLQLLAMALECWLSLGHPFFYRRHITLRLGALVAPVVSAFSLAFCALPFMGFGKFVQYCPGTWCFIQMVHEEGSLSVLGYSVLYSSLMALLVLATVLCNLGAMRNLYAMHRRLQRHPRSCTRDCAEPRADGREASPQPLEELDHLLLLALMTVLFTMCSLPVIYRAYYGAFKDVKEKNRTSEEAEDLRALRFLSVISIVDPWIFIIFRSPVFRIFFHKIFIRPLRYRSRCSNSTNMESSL

Cytochrome P450 1A2 = target: T7, Cytochrome P450 1A2 (Homo sapiens, UniProt P05177); experiment: Inhibition of human CYP1A2; assay type: ADME
T7 sequence (P05177 whole entry): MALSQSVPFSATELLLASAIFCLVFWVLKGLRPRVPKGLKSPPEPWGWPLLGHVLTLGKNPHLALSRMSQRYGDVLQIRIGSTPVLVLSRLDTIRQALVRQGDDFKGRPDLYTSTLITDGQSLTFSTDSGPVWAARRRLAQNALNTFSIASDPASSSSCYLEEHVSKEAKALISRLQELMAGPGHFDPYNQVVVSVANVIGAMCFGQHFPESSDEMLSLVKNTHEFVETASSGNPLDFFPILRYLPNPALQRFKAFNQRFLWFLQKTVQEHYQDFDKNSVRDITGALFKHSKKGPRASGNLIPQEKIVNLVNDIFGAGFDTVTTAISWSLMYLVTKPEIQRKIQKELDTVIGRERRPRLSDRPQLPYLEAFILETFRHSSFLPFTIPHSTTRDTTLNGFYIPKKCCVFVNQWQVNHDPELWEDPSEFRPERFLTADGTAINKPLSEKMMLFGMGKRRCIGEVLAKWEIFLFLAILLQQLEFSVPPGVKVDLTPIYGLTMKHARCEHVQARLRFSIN

[22] = target: Prostaglandin F2-alpha receptor (Homo sapiens, UniProt P43088); experiment: Antagonist activity at FP receptor (unknown origin)
[23] = target: T3, Prostaglandin E2 receptor EP3 subtype; experiment: Agonist activity at EP3 receptor (unknown origin)
Cytochrome P450 2D6 = Cytochrome P450 2D6 (Homo sapiens, UniProt P10635); experiment: Inhibition of human CYP2D6; assay type: ADME
Prostacyclin receptor [24] = target: T4, Prostacyclin receptor; experiment: Agonist activity at IP receptor (unknown origin)
Rattus norvegicus [25] = species: Rattus norvegicus; experiment: Toxicity in rat; details: in vivo
Cytochrome P450 3A4 = Cytochrome P450 3A4 (Homo sapiens, UniProt P08684); experiment: Inhibition of human CYP3A4; assay type: ADME
Thromboxane A2 receptor = target: T8, Thromboxane A2 receptor (Homo sapiens, UniProt P21731); experiment: Antagonist activity at TP receptor (unknown origin)
T8 sequence (P21731 whole entry): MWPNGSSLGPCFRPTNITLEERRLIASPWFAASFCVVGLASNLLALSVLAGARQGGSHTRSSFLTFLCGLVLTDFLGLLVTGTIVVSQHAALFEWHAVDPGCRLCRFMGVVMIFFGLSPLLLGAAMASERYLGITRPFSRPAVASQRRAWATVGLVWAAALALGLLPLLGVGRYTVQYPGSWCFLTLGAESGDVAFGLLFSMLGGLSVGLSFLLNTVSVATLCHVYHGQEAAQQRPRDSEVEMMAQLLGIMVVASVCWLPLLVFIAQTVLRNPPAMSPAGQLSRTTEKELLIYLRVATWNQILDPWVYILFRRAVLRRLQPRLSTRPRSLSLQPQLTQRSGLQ

T4 sequence (P43119 whole entry): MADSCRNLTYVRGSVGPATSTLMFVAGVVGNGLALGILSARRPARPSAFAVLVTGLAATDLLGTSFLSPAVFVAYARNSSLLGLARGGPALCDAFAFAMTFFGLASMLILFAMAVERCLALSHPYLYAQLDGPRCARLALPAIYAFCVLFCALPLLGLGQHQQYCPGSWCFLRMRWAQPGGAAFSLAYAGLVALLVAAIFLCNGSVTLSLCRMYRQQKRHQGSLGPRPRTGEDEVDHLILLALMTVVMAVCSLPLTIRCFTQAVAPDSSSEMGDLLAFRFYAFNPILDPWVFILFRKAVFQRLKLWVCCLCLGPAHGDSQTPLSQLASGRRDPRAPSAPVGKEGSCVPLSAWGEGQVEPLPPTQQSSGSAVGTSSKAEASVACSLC
Chain of Prostaglandin F2-alpha receptor (P43088 whole entry): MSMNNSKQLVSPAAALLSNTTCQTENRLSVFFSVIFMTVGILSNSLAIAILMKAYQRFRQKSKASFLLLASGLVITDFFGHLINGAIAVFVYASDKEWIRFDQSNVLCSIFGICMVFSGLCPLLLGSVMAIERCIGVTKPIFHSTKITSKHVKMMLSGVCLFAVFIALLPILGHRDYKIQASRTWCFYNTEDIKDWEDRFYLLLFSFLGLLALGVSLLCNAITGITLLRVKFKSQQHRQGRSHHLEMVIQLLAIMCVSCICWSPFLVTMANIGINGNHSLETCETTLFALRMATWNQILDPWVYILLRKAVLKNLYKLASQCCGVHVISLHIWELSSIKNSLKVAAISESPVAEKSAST
Chain of Cytochrome P450 3A4 (P08684 whole entry): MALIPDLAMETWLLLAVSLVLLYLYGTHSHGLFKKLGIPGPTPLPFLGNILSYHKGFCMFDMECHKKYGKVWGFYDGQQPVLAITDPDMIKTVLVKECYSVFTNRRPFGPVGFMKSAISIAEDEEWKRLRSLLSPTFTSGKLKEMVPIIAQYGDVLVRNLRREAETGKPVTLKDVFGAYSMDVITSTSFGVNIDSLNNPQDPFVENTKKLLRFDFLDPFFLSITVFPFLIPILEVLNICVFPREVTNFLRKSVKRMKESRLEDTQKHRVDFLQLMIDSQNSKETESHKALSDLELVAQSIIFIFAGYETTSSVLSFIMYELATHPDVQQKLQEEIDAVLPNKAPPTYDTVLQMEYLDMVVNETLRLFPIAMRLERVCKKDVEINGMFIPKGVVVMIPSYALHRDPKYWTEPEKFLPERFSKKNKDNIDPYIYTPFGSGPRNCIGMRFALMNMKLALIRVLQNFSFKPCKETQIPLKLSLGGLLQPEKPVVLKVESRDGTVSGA
Chain of Cytochrome P450 2C9 (P11712 whole entry): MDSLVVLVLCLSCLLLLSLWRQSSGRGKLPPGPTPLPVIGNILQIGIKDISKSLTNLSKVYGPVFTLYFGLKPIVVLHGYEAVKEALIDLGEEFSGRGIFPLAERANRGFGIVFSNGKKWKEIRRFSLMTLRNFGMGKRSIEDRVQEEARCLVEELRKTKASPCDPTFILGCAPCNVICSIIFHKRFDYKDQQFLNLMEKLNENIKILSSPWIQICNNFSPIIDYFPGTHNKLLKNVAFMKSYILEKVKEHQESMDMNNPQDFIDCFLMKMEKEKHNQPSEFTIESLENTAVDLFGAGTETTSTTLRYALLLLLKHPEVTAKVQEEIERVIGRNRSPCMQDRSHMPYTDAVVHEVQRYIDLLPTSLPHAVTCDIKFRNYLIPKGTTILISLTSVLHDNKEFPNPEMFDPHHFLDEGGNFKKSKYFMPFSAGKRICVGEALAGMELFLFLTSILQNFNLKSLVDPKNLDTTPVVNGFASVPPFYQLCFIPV
Chain of Prostaglandin E2 receptor EP2 subtype (P43116 whole entry): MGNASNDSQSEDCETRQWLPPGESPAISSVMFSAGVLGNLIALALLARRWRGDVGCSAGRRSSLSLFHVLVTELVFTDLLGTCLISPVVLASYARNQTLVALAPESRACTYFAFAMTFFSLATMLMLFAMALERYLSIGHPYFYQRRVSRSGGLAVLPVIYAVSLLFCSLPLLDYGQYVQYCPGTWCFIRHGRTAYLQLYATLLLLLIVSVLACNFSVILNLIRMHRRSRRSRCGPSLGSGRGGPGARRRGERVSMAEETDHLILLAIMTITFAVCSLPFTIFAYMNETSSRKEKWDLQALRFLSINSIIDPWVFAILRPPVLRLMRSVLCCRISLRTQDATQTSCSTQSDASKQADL
Chain of Prostaglandin E2 receptor EP4 subtype (P35408 whole entry): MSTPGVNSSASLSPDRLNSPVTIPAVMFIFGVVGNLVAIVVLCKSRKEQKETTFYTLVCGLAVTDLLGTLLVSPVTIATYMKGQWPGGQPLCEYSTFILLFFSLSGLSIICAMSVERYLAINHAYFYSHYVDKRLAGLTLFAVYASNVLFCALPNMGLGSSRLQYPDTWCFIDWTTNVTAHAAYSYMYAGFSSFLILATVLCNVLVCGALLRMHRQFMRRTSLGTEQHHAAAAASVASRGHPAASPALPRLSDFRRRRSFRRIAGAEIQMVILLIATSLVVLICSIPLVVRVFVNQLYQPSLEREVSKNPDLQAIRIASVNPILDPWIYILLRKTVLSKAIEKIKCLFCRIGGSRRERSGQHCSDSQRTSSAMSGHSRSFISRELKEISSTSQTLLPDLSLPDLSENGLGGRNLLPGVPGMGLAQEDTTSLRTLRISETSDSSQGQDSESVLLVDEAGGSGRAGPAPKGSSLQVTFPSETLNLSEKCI
Chain of Cytochrome P450 2D6 (P10635 whole entry): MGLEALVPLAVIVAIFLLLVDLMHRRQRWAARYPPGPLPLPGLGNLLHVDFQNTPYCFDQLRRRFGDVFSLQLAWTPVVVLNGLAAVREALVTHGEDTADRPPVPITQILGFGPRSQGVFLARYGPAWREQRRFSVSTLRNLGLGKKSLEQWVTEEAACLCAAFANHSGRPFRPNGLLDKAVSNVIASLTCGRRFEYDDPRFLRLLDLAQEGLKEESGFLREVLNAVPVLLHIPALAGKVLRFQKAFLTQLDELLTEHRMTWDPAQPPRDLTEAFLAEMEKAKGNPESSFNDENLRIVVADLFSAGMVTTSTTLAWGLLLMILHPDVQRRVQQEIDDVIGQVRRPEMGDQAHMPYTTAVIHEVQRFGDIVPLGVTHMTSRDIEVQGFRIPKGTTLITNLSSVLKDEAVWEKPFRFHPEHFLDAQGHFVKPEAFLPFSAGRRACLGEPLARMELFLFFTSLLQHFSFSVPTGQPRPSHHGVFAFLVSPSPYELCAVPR

Cc1c(CC(=O)O)c2cccnc2n1Cc1ccc(S(C)(=O)=O)cc1 [QAV680]
IC50 [1]: 59 nM
IC50 (Rattus norvegicus [2]): 40 nM
T1/2 [3]: 1.29 min
Kd [4]: 15.1 nM
IC50 [5]: 5 nM
IC50 [6]: 25 nM
IC50 [7]: 31 nM

CCc1ccc2c(CC(=O)O)c(C)n(Cc3ccc(S(C)(=O)=O)cc3)c2n1
IC50 [5]: 6 nM
Ki [8]: 47 nM

Cc1c(CC(=O)O)c2ccccc2n1Cc1ccc(S(C)(=O)=O)cc1
T1/2 [3]: 0.18 min
Kd [4]: 25.1 nM
IC50 [5]: 20 nM
Ki [8]: 19 nM

Cc1c(CC(=O)O)c2cccnc2n1Cc1ccc(S(=O)(=O)C(C)C)cc1
Ki [8]: 86 nM

Cc1ccc2c(CC(=O)O)c(C)n(Cc3ccc(S(C)(=O)=O)cc3)c2n1
Ki [8]: 72 nM

Cc1c(CC(=O)O)c2c(Cl)ccnc2n1Cc1ccc(S(C)(=O)=O)cc1
IC50 [5]: 80 nM
Ki [8]: 356 nM

Cc1cc(S(C)(=O)=O)ccc1Cn1c(C)c(CC(=O)O)c2cccnc21
IC50 [5]: 4 nM

Cc1c(CC(=O)O)c2cccnc2n1Cc1ccc(S(C)(=O)=O)cc1Cl
IC50 [5]: 1.7 nM
Ki [8]: 4 nM

CCS(=O)(=O)c1ccc(Cn2c(C)c(CC(=O)O)c3cccnc32)c(Cl)c1
Vd [9]: 1.1 L/kg
T1/2 [3]: 3.36 min
bioavailability [10]: 71%
Kd [4]: 1.91 nM
IC50 [5]: 1.3 nM
Ki [8]: 6 nM
clearance [11]: 4.4 mL/min/kg
half-life [12]: 462 min

Cc1c(CC(=O)O)c2cccnc2n1Cc1ccc(S(C)(=O)=O)cc1C(F)(F)F [FEVIPIPRANT]
IC50 [13]: > 10000 nM
IC50 [14]: > 10000 nM
IC50 (Cytochrome P450 2C9): > 100000 nM
Vd [9]: 1.1 L/kg
Activity (Canis familiaris): Non-Toxic
IC50 [1]: 2.6 nM
IC50 (Prostacyclin receptor [15]): > 10000 nM
T1/2 [3]: 12 min
IC50 (Rattus norvegicus [16]): 6.5 nM
IC50 [17]: 3.1 nM
bioavailability [10]: 43%
IC50 [18]: > 10000 nM
Kd [4]: 1.02 nM
fraction unbound [19]: 0.08
Activity [20]: Not Active
IC50 [21]: > 10000 nM
IC50 (Cytochrome P450 1A2): > 100000 nM
IC50 [5]: 0.4 nM
IC50 [22]: > 10000 nM
EC50 [23]: > 10000 nM
IC50 (Cytochrome P450 2D6): > 100000 nM
EC50 (Prostacyclin receptor [24]): > 10000 nM
Activity (Rattus norvegicus [25]): Non-Toxic
IC50 [6]: 1.4 nM
clearance [11]: 1.6 mL/min/kg
half-life [12]: 792 min
IC50 (Cytochrome P450 3A4): > 100000 nM
IC50 (Thromboxane A2 receptor): > 10000 nM

Cc1c(CC(=O)O)c2cc(Br)cnc2n1Cc1ccc(S(C)(=O)=O)cc1
Ki [8]: 735 nM

Cc1cnc2c(c1)c(CC(=O)O)c(C)n2Cc1ccc(S(C)(=O)=O)cc1
Ki [8]: 1340 nM

CCS(=O)(=O)c1ccc(Cn2c(C)c(CC(=O)O)c3cccnc32)cc1
IC50 [5]: 4 nM
Ki [8]: 50 nM

Cc1c(CC(=O)O)c2cccnc2n1Cc1ccc(S(C)(=O)=O)c(C(F)(F)F)c1
IC50 [5]: 4 nM
Ki [8]: 31 nM

Cc1c(CC(=O)O)c2cccnc2n1Cc1ccc(C(F)(F)F)cc1C(F)(F)F
IC50 [5]: 14 nM

CCS(=O)(=O)c1ccc(Cn2c(C)c(CC(=O)O)c3cccnc32)c(C(F)(F)F)c1
Vd [9]: 1.2 L/kg
bioavailability [10]: 97%
IC50 [5]: 0.8 nM
Ki [8]: 7 nM
clearance [11]: 2.9 mL/min/kg
half-life [12]: 552 min
